Laboratory results reported in article PMC11756387, “Improving the solubility of pseudo-hydrophobic chemicals through co-crystal formulation” (PNAS Nexus, 2025).
Converted amounts (≈) assume the structure as drawn. Each block holds one compound with its values, some of them ahead of it.

Experiments:
in vitro [1] = conditions: male, mouse, microsomes
physchem [2] = conditions: water, thermodynamic from solid
physchem [3] = conditions: pH 7.4
[4] = buffer
in vitro [5] = conditions: human, microsomes
AD tau = AD tau (Homo sapiens, UniProt P10636); assay type: cell-based
[6] = Kinetic solubility in simulated intestinal fluid (SIF); conditions: pH 6.8

Sequence of AD tau (P10636 623-695 limits assumed): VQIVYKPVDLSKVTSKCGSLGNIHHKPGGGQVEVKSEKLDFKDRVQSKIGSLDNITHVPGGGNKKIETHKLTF

- half-life at 1 µM (in vitro [1]): 1.57 h
- solubility thermodynamic (physchem [2]): 650 µg/mL (≈ 2030 µM)
- logD at 1 h (physchem [3]): 0.63
- Fraction remaining dissolved in aqueous solution after centrifugation [4]: about 20%
- half-life at 1 µM (in vitro [5]): 3.38 h
- remaining at 1 h, 1 µM (in vitro [5]): ~100%
SMILES: O=C1c2c(O)cc(O)cc2O[C@H](c2cc(O)c(O)c(O)c2)[C@H]1O [DHM, dihydromyricetin]

SMILES: [Ca+2].[OH-].[OH-] [Ca(OH)2, calcium hydroxide]
- Inhibitory activity of counterions toward tau seeding (AD tau): neither TEA nor Ca(OH)2 exhibited inhibitory activity

- solubility kinetic at 2 h [6]: ~300 µM (≈ 88.8 µg/mL)
SMILES: O=C(O)Cc1ccccc1Nc1c(Cl)cccc1Cl [diclofenac]
